Assay results: PubChem BioAssay (NCI)
Values joined by “and” are separate entries in the source; they are usually repeats but may differ in a detail not shown here. Equal values may be shown once.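 Briefly, cells in 96-well plates were exposed to five compound concentrations for 48 h, and endpoints were estimated by linear interpolation. Here, GI50 denotes the concentration required for 50% inhibition of growth. TGI: concentration producing complete growth inhibition.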

Key:
Test in all cases: NCI anticancer screen, dose series, 48 h
RXF 393 renal = tested on: RXF 393 renal
EKVX NSCLC = tested on: EKVX NSCLC
HS 578T breast = tested on: HS 578T breast
UACC-62 melanoma = tested on: UACC-62 melanoma
NCI-H460 lung = tested on: NCI-H460 lung
RPMI-8226 leukemia = tested on: RPMI-8226 leukemia
OVCAR-4 ovarian = tested on: OVCAR-4 ovarian
COLO 205 colon = tested on: COLO 205 colon
HOP-92 NSCLC = tested on: HOP-92 NSCLC
A498 renal = tested on: A498 renal

Structure (SMILES) | GI50 (RXF 393 renal) | TGI (RXF 393 renal) | GI50 (EKVX NSCLC) [µM] | TGI (EKVX NSCLC) [µM] | GI50 (HS 578T breast) | TGI (HS 578T breast) | GI50 (UACC-62 melanoma) | TGI (UACC-62 melanoma) | GI50 (NCI-H460 lung) | GI50 (RPMI-8226 leukemia) | TGI (RPMI-8226 leukemia) | GI50 (OVCAR-4 ovarian) | TGI (OVCAR-4 ovarian) | GI50 (COLO 205 colon) | TGI (COLO 205 colon) | GI50 (HOP-92 NSCLC) | TGI (HOP-92 NSCLC) | GI50 (A498 renal) | TGI (A498 renal) | TGI (NCI-H460 lung)
C(=N\Nc1ccc2ccccc2n1)/c1ccccn1 | 0.443 µM | > 52 µM | 0.37 | > 32.9 | 2.36 µM | > 52.9 µM | 0.877 µM | 5.54 µM | 0.366 µM | 0.513 µM | 15.7 µM | 0.363 µM | > 100 µM | 0.41 µM | 8.96 µM | 0.816 µM | 32.8 µM | 0.561 µM | 15.4 µM | 
CCN1C(=O)N(CC)C2C1N=C(SC)N2/N=C/C=C/c1ccccc1OC (stereo not drawn) | 0.376 µM | 35.3 µM | 0.581 | > 56.6 | 0.422 µM | > 56.4 µM | 0.492 µM | > 40.4 µM | 0.341 µM | 0.37 µM | 3.31 µM | 1.55 µM | > 81.5 µM | 0.324 µM |  | 0.428 µM | 7.31 µM | 0.285 µM | 1.9 µM | > 34.3 µM
CCC(c1ccccc1)c1cc(C(C)(C)C)cc(C(C)(C)C)c1O (stereo not drawn) |  | 34.2 µM |  | 32.2 |  | 32.3 µM |  | 32.2 µM |  |  | 28.5 µM |  | 29.3 µM |  | 34.2 µM |  | 30.1 µM |  | 33.9 µM | 31.3 µM
CNC(=O)c1cc(Oc2ccc(NC(=O)Nc3cc(C(C)(C)C)nn3-c3ccc4ncccc4c3)c(F)c2)ccn1 | 0.821 µM and 0.647 µM | 2.61 µM and 2.05 µM | 2.72 | 8.61 | 1.14 µM and 1.03 µM | 5.42 µM and 5.03 µM | 0.0743 µM and 0.0624 µM | 1.62 µM and 1.18 µM | 2.06 µM and 2.04 µM | 2.4 µM and 2.5 µM | 6.51 µM and 5.91 µM | 2.38 µM and 2.49 µM | 7.74 µM and 14.5 µM | 0.459 µM and 0.62 µM | 1.85 µM and 2.2 µM | 0.46 µM and 0.446 µM | 4.85 µM and 4.6 µM | 1.26 µM and 0.307 µM | 3.21 µM and 2.42 µM | 8.11 µM and 6.93 µM
CC1(C)C(=O)/C=C\C(=O)C(C)(C)C(=O)/C=C\C(=O)C(C)(C)C2=CC=C(O2)C(C)(C)C(=O)/C=C\C1=O |  | 4.73 µM |  | 11.6 |  | 50 µM |  | 15.7 µM |  |  | 3.17 µM |  | 14.8 µM |  | 6.45 µM |  | 3.9 µM |  | 30.9 µM | 46.8 µM
N=C(CC(=O)Nc1ccccn1)c1ccccc1 |  | > 100 µM |  | > 100 |  | > 100 µM |  | > 100 µM |  |  | > 100 µM |  | > 100 µM |  | > 100 µM |  | > 100 µM |  | > 100 µM | > 100 µM
